Measurements from ChEMBL document CHEMBL1687765, “NagZ inactivation prevents and reverts beta-lactam resistance, driven by AmpD and PBP 4 mutations, in Pseudomonas aeruginosa” (2010).

Columns and labels:
Format in all cases: functional
Pseudomonas aeruginosa [1] = test: Induction of ampC mRNA in ampD::lox and nagZ::lox gene-deficient Pseudomonas aeruginosa PAO1 at 50 ug/ml by RT-PCR relative to wild type Pseudomonas aeruginosa PAO1 (reference value: 1 +/- 0.4 no unit)
Pseudomonas aeruginosa [2] = test: Induction of ampC mRNA in ampR::lox gene-deficient Pseudomonas aeruginosa PAO1 at 50 ug/ml by RT-PCR relative to wild type Pseudomonas aeruginosa PAO1 (reference value: 3.8 +/- 0.4 no unit)
Pseudomonas aeruginosa [3] = test: Induction of creD mRNA in ampD::lox, ampDh2::lox,ampDh3::lox and nagZ::lox gene-deficient Pseudomonas aeruginosa PAO1 at 50 ug/ml by RT-PCR relative to wild type Pseudomonas aeruginosa PAO1 (reference value: -1.4 +/- 0.1 no unit)
Pseudomonas aeruginosa [4] = test: Induction of ampC mRNA in ampD::lox and nagZ::lox gene-deficient Pseudomonas aeruginosa PAO1 at 50 ug/ml by RT-PCR relative to wild type Pseudomonas aeruginosa PAO1 (reference value: 40 +/- 17 no unit) harboring dacB gene
Pseudomonas aeruginosa [5] = test: Induction of creD mRNA in ampD::lox gene-deficient Pseudomonas aeruginosa PAO1 at 50 ug/ml by RT-PCR relative to wild type Pseudomonas aeruginosa PAO1 (reference value: 51 +/- 24 no unit) harboring dacB gene
Pseudomonas aeruginosa [6] = test: Induction of ampC mRNA in ampD::lox, ampDh2::lox and ampDh3::lox gene-deficient Pseudomonas aeruginosa PAO1 at 50 ug/ml by RT-PCR relative to wild type Pseudomonas aeruginosa PAO1 (reference value: 1020 +/- 88 no unit)
Pseudomonas aeruginosa [7] = test: Induction of creD mRNA in ampD::lox and nagZ::lox gene-deficient Pseudomonas aeruginosa PAO1 at 50 ug/ml by RT-PCR relative to wild type Pseudomonas aeruginosa PAO1 (reference value: 1.9 +/- 1.3 no unit) harboring dacB gene
Pseudomonas aeruginosa [8] = test: Induction of creD mRNA in ampD::lox gene-deficient Pseudomonas aeruginosa PAO1 at 50 ug/ml by RT-PCR relative to wild type Pseudomonas aeruginosa PAO1 (reference value: 1.1 +/- 0.3 no unit)
Pseudomonas aeruginosa [9] = test: Induction of creD mRNA in ampD::lox, ampDh2::lox and ampDh3::lox gene-deficient Pseudomonas aeruginosa PAO1 at 50 ug/ml by RT-PCR relative to wild type Pseudomonas aeruginosa PAO1 (reference value: 1.3 +/- 0.3 no unit)
Pseudomonas aeruginosa [10] = test: Induction of creD mRNA in Pseudomonas aeruginosa PAO1 at 50 ug/ml by RT-PCR relative to wild type Pseudomonas aeruginosa PAO1 (reference value: 1 no unit)
Pseudomonas aeruginosa [11] = test: Induction of creD mRNA in nagZ::lox gene-deficient Pseudomonas aeruginosa PAO1 at 50 ug/ml by RT-PCR relative to wild type Pseudomonas aeruginosa PAO1 (reference value: 1.1 +/- 0.3 no unit)
Pseudomonas aeruginosa [12] = test: Induction of creD mRNA in dacB::lox and nagZ::lox gene-deficient Pseudomonas aeruginosa PAO1 at 50 ug/ml by RT-PCR relative to wild type Pseudomonas aeruginosa PAO1 (reference value: 4 +/- 0.8 no unit)
Pseudomonas aeruginosa [13] = test: Induction of ampC mRNA in Pseudomonas aeruginosa PAO1 at 50 ug/ml by RT-PCR relative to wild type Pseudomonas aeruginosa PAO1 (reference value: 1 no unit)
Pseudomonas aeruginosa [14] = test: Induction of ampC mRNA in ampD::lox gene-deficient Pseudomonas aeruginosa PAO1 at 50 ug/ml by RT-PCR relative to wild type Pseudomonas aeruginosa PAO1 (reference value: 1770 +/- 414 no unit) harboring dacB gene
Pseudomonas aeruginosa [15] = test: Induction of ampC mRNA in dacB::lox and nagZ::lox gene-deficient Pseudomonas aeruginosa PAO1 at 50 ug/ml by RT-PCR relative to wild type Pseudomonas aeruginosa PAO1 (reference value: 3 +/- 1.9 no unit)
Pseudomonas aeruginosa [16] = test: Induction of creD mRNA in ampR::lox gene-deficient Pseudomonas aeruginosa PAO1 at 50 ug/ml by RT-PCR relative to wild type Pseudomonas aeruginosa PAO1 (reference value: 1.6 +/- 0.1 no unit)
Pseudomonas aeruginosa [17] = test: Induction of ampC mRNA in nagZ::lox gene-deficient Pseudomonas aeruginosa PAO1 at 50 ug/ml by RT-PCR relative to wild type Pseudomonas aeruginosa PAO1 (reference value: -2.1 +/- 1.5 no unit)
Pseudomonas aeruginosa [18] = test: Induction of creD mRNA in ampD::lox and nagZ::lox gene-deficient Pseudomonas aeruginosa PAO1 at 50 ug/ml by RT-PCR relative to wild type Pseudomonas aeruginosa PAO1 (reference value: 2.8 +/- 1.6 no unit)
Pseudomonas aeruginosa [19] = test: Induction of ampC mRNA in ampD::lox gene-deficient Pseudomonas aeruginosa PAO1 at 50 ug/ml by RT-PCR relative to wild type Pseudomonas aeruginosa PAO1 (reference value: 47 +/-9.5 no unit)
Pseudomonas aeruginosa [20] = test: Induction of ampC mRNA in ampD::lox, ampDh2::lox,ampDh3::lox and nagZ::lox gene-deficient Pseudomonas aeruginosa PAO1 at 50 ug/ml by RT-PCR relative to wild type Pseudomonas aeruginosa PAO1 (reference value: 57 +/- 31 no unit)
Pseudomonas aeruginosa [21] = test: Induction of ampC mRNA in dacB::lox gene-deficient Pseudomonas aeruginosa PAO1 at 50 ug/ml by RT-PCR relative to wild type Pseudomonas aeruginosa PAO1 (reference value: 51 +/- 16 no unit)
Pseudomonas aeruginosa [22] = test: Induction of creD mRNA in dacB::lox gene-deficient Pseudomonas aeruginosa PAO1 at 50 ug/ml by RT-PCR relative to wild type Pseudomonas aeruginosa PAO1 (reference value: 83 +/- 7 no unit)

Q: For CO[C@@]1(NC(=O)Cc2cccs2)C(=O)N2C(C(=O)O)=C(COC(N)=O)CS[C@@H]21 [CEFOXITIN], which “fold change (FC)” value (Pseudomonas aeruginosa [1]) is on record?
A: 483

Q: And the “fold change (FC)” value (Pseudomonas aeruginosa [2])?
A: 3.3

Q: What about the “fold change (FC)” value (Pseudomonas aeruginosa [3]) of the same compound?
A: 1

Q: What about the “fold change (FC)” value (Pseudomonas aeruginosa [4]) of the same compound?
A: 906

Q: And the “fold change (FC)” value (Pseudomonas aeruginosa [5])?
A: 81

Q: And the “fold change (FC)” value (Pseudomonas aeruginosa [6])?
A: 1105

Q: And the “fold change (FC)” value (Pseudomonas aeruginosa [7])?
A: 418

Q: And the “fold change (FC)” value (Pseudomonas aeruginosa [8])?
A: 2.7

Q: What about the “fold change (FC)” value (Pseudomonas aeruginosa [9]) of the same compound?
A: 1.6

Q: What about the “fold change (FC)” value (Pseudomonas aeruginosa [10]) of the same compound?
A: 24

Q: What about the “fold change (FC)” value (Pseudomonas aeruginosa [11]) of the same compound?
A: 54

Q: And the “fold change (FC)” value (Pseudomonas aeruginosa [12])?
A: 95

Q: And the “fold change (FC)” value (Pseudomonas aeruginosa [13])?
A: 78

Q: And the “fold change (FC)” value (Pseudomonas aeruginosa [14])?
A: 1950

Q: And the “fold change (FC)” value (Pseudomonas aeruginosa [15])?
A: 661

Q: And the “fold change (FC)” value (Pseudomonas aeruginosa [16])?
A: 189

Q: What about the “fold change (FC)” value (Pseudomonas aeruginosa [17]) of the same compound?
A: 469

Q: What about the “fold change (FC)” value (Pseudomonas aeruginosa [18]) of the same compound?
A: 99

Q: And the “fold change (FC)” value (Pseudomonas aeruginosa [19])?
A: 134

Q: And the “fold change (FC)” value (Pseudomonas aeruginosa [20])?
A: 905

Q: What about the “fold change (FC)” value (Pseudomonas aeruginosa [21]) of the same compound?
A: 232

Q: And the “fold change (FC)” value (Pseudomonas aeruginosa [22])?
A: 120
